Measurements published in the NIST ThermoML archive (doi:10.1016/j.fluid.2014.10.037).
Values joined by “and” are separate entries in the source; they are usually repeats but may differ in a detail not shown here. Equal entries are not always repeated.

Conditions: Liquid, Closed cell (Static) method

O=Cc1ccco1 [2-furaldehyde]
Conditions	vapor or sublimation pressure [kPa]
353.2 K	5.9
373.4 K	13.6
408 K	46.3

OCc1ccco1 [2-hydroxymethylfuran]
Conditions	vapor or sublimation pressure [kPa]
353.3 K	2.6
373 K	7
407.9 K	30.1

Cc1ccco1 [2-methylfuran]
Conditions	vapor or sublimation pressure
353.8 K	161.8 kPa and 162.6 kPa
357.5 K	181.5 kPa and 181.7 kPa
358.3 K	186.5 kPa
362.4 K	210.5 kPa
362.5 K	211.1 kPa
363.1 K	214.9 kPa
367.2 K	242.1 kPa
367.4 K	242.7 kPa
367.9 K	246 kPa
373.4 K	285.3 kPa
373.6 K	286.4 kPa
373.9 K	288.4 kPa
398.2 K	527.6 kPa
398.4 K	530.3 kPa
398.8 K	533.8 kPa
403 K	587.6 kPa
403.2 K	591.7 kPa
403.3 K	592.3 kPa
408.4 K	667.2 kPa
408.6 K	670.2 kPa
409 K	676.7 kPa

c1ccoc1 [furan]
Conditions	vapor or sublimation pressure [kPa]
353.4 K	455.1
373.1 K	735.6
407.9 K	1513.3

CC(C)O [propan-2-ol]
Conditions	vapor or sublimation pressure [kPa]
353.3 K	93.8
373.5 K	200.1
408.3 K	593.8
